Drawing on patent US10961202B2, “Bis-benzimidazole compounds and methods of using the same” (THE SCRIPPS RESEARCH INSTITUTE, priority 2017, dated 2021), this text covers IC50 for 38 molecules.

This test has as its system r(CUG)12-MBNL1 complex. Briefly: Inhibition of the r(CUG)12-MBNL1 complex measured by TR-FRET. The class given is biochemical. Conditions: 80 nM RNA, 60 nM MBNL1-His6. (TR-FRET usually uses a lanthanide donor and a delayed reading to cut background.)

Molecule `N=C(N)Nc1ccc(-c2nc3cc(-c4ccc5[nH]c(-c6ccc(NC(=N)N)cc6)nc5c4)ccc3[nH]2)cc1` [Compound 96] showed an IC50 (Table L) of 4.6 µM.
The molecule `CC(C(=O)N(C)C(C)C(=O)N(C)C(C)C(=O)N(C)C(C)C(=O)N(CCCn1cc(CCCCN(C)CCOc2ccc(-c3nc4cc(-c5ccc6[nH]c(-c7ccc(OCCN(C)C)cc7)nc6c5)ccc4[nH]3)cc2)nn1)CC(N)=O)N(C)C(=O)CNCCCn1cc(CCCCN(C)CCOc2ccc(-c3nc4cc(-c5ccc6[nH]c(-c7ccc(OCCN(C)C)cc7)nc6c5)ccc4[nH]3)cc2)nn1` (centres unmarked) [compound 164] gave an IC50 (Table M) of 1.91 µM. This counts as single-digit micromolar.
Take `CN(C)CCNC(=O)c1ccc(-c2nc3cc(-c4ccc5[nH]c(-c6ccc(C(=O)NCCCNC(=O)c7ccc(-c8nc9cc(-c%10ccc%11[nH]c(-c%12ccc(C(=O)NCCN(C)C)cc%12)nc%11c%10)ccc9[nH]8)cc7)cc6)nc5c4)ccc3[nH]2)cc1` [Compound 413]: the IC50 (Table M) amounted to 3.34 µM.
`Cc1cc(-c2nc3cc(-c4ccc5[nH]c(-c6cc(C)c(OCCCN(C)C)c(C)c6)nc5c4)ccc3[nH]2)cc(C)c1OCCCN(C)C` [Compound 360] yielded a concentration for half-maximal inhibition (IC50) (Table M) of 21.2 µM.
The molecule `N=C(N)Nc1ccc(-c2nc3cc(-c4ccc5[nH]c(-c6ccc(N)cc6)nc5c4)ccc3[nH]2)cc1` [Compound 167] had an IC50 (Table L) of 54.4 µM.
Same read-out and setting: the same measure for `CC(C)(C)OC(=O)N1CCN=C1Nc1ccc2[nH]c(-c3ccc(-c4nc5cc(N)ccc5[nH]4)cc3)nc2c1` [Compound 23, tert-butyl 2-((2-(4-(5-amino-1H-benzo[d]imidazol-2-yl)phenyl)-1H-benzo[d]imidazol-5-yl)amino)-4,5-dihydro-1H-imidazole-1-carboxylate]: 55 µM.
Take `C#CCCCCNC(=O)CCCOc1ccc2[nH]c(-c3ccc(-c4nc5cc(OCCCN(C)C)ccc5[nH]4)cc3)nc2c1` [Compound 323]: half-maximal inhibition (Table M) (IC50) required 20.3 µM.
Where the note is “Table L”, `CN(C)CCNC(=O)c1ccc2nc(-c3ccc(-c4nc5ccc(C#N)cc5[nH]4)cc3)[nH]c2c1` [Compound 15] displayed an IC50 of 45 µM.
The molecule `CN(C)NC(=O)Nc1ccc2nc(-c3ccc(-c4nc5ccc(NC(=O)NN(C)C)cc5[nH]4)cc3)[nH]c2c1` [Compound 66, N,N′-(2,2′-(1,4-phenylene)bis(1H-benzo[d]imidazole-6,2-diyl))bis(2,2-dimethylhydrazinecarboxamide)] registered an IC50 (Table L) of over 200 µM.
On the same count and under the same terms, as for `CNCCNC(=O)c1ccc2nc(-c3ccc(-c4nc5ccc(C(=O)NCCN(C)C)cc5[nH]4)cc3)[nH]c2c1` [Compound 27, N-(2-(dimethylamino)ethyl)-2-(4-(6-((2-(methylamino)ethyl)carbamoyl)-1H-benzo[d]imidazol-2-yl)phenyl)-1H-benzo[d]imidazole-6-carboxamide], the figure is 12.3 µM.
Turning to `Oc1ccc2nc(-c3ccc(-c4nc5ccc(OCCN6CCCCC6)cc5[nH]4)cc3)[nH]c2c1` [Compound 195], for the setting “Table M”, 104 µM corresponded to half-maximal inhibition (IC50).
Still for that read-out and setting: as for `CN1CCC(Oc2ccc3nc(-c4ccc(-c5nc6ccc(OC7CCN(C)CC7)cc6[nH]5)cc4)[nH]c3c2)CC1` [Compound 208], the figure is 101 µM; as for `C[C@@H](NC(=O)CNCCCn1cc(CCCCN(C)CCNC(=O)CCCOc2ccc3[nH]c(-c4ccc(-c5nc6cc(OCCCN(C)C)ccc6[nH]5)cc4)nc3c2)nn1)C(=O)N[C@H](C)C(=O)N[C@H](C)C(=O)N[C@H](C)C(=O)N(CCCn1cc(CCCCN(C)CCNC(=O)CCCOc2ccc3[nH]c(-c4ccc(-c5nc6cc(OCCCN(C)C)ccc6[nH]5)cc4)nc3c2)nn1)CC(N)=O` [Compound 407], 110 µM; as for `CN(C)CCCOc1ccc2nc(-c3ccc(-c4nc5ccc(OCCCC(F)(F)F)cc5[nH]4)cc3)[nH]c2c1` [Compound 240, N,N-dimethyl-3-((2-(4-(6-(4,4,4-trifluorobutoxy)-1H-benzo[d]imidazol-2-yl)phenyl)-1H-benzo[d]imidazol-6-yl)oxy)propan-1-amine], 71.5 µM.
On the same count and under the same terms, as for `CCN(CC)CCCOc1ccc2nc(-c3ccc(-c4nc5ccc(O)cc5[nH]4)cc3)[nH]c2c1` [Compound 188], the figure is 46.9 µM; as for `Cc1cc(-c2nc3ccc(OCCCN(C)C)cc3[nH]2)c(C)cc1-c1nc2ccc(OCCCN(C)C)cc2[nH]1` [Compound 271, (3-[[2-(4-[6-[3-(dimethylamino)propoxy]-1H-1,3-benzodiazol-2-yl]-2,5-dimethylphenyl)-1H-1,3-benzodiazol-6-yl]oxy]propyl)dimethylamine], over 200 µM; as for `COc1ccc2nc(-c3ccc(-c4nc5ccc(OCCCN(C)C)cc5[nH]4)cc3)[nH]c2c1` [Compound 245, 3-((2-(4-(6-methoxy-1H-benzo[d]imidazol-2-yl)phenyl)-1H-benzo[d]imidazol-6-yl)oxy)-N,N-dimethylpropan-1-amine], 83.8 µM.
Same read-out and setting: the same measure for `CN(C)CC(C)(C)COc1ccc(-c2nc3cc(-c4ccc5[nH]c(-c6ccc(OCC(C)(C)CN(C)C)cc6)nc5c4)ccc3[nH]2)cc1` [Compound 376]: 69.5 µM; for `CCCCOc1cc(-c2nc3cc(OCCCN(C)C)ccc3[nH]2)c(OCCCC)cc1-c1nc2cc(OCCCN(C)C)ccc2[nH]1` [Compound 333]: 46.9 µM.
With `C[C@H](CN(C)C)NC(=O)c1ccc(-c2nc3cc(-c4ccc5[nH]c(-c6ccc(C(=O)N[C@H](C)CN(C)C)cc6)nc5c4)ccc3[nH]2)cc1` [Compound 388], the IC50 (Table M) is 30.2 µM.
`COC(=O)[C@H](CCCNC(=N)N)NC(=O)c1ccc2nc(-c3ccc(-c4nc5ccc(C(=O)N[C@@H](CCCNC(=N)N)C(=O)OC)cc5[nH]4)cc3)[nH]c2c1` [Compound 39] returned an IC50 (Table L) of 4.4 µM.
Where the note is “Table M”, `CN(C)CCCOc1ccc2nc(-c3ccc(-c4nc5ccc(OCCCN(C)C)cc5[nH]4)c(OCCN(C)C)c3)[nH]c2c1` [Compound 263, 3,3′-((2,2′-(2-(2-(dimethylamino)ethoxy)-1,4-phenylene)bis(1H-benzo[d]imidazole-6,2-diyl))bis(oxy))bis(N,N-dimethylpropan-1-amine)] had an IC50 of 45.6 µM.
Where the note is “Table M”, `CN(C)[C@H]1CC[C@H](Oc2ccc3nc(-c4ccc(-c5nc6ccc(O[C@H]7CC[C@H](N(C)C)CC7)cc6[nH]5)cc4)[nH]c3c2)CC1` [Compound 219] had a concentration for half-maximal inhibition (IC50) of 18.1 µM. This IC50 lies about 2.5-fold lower than the previous one.
Turning to `CN(C)CCNC(=O)c1ccc(-c2nc3cc(-c4ccc5[nH]c(-c6ccc(C(=O)NCCOCCOCCN=[N+]=[N-])cc6)nc5c4)ccc3[nH]2)cc1` [Compound 398], the half-maximal inhibitory concentration (IC50) (Table M) came to 14.7 µM.
Still for that read-out and setting: the same measure for `C[C@@H](NC(=O)CN(CCN)C(=O)c1ccc(-c2nc3cc(-c4ccc5[nH]c(-c6ccc(OCCCN(C)C)cc6)nc5c4)ccc3[nH]2)cc1)C(=O)N[C@H](C)C(=O)N[C@H](C)C(=O)N[C@H](C)C(=O)N(CCNC(=O)c1ccc(-c2nc3cc(-c4ccc5[nH]c(-c6ccc(OCCCN(C)C)cc6)nc5c4)ccc3[nH]2)cc1)CC(N)=O` [Compound 447]: 22.6 µM.
Still for that read-out and setting: as for `COCCn1c(-c2ccc(-c3nc4ccc(OCCCN(C)C)cc4[nH]3)cc2)nc2ccc(OCCCN(C)C)cc21` [Compound 330], the figure is 132 µM.
`CN(C)NC(=O)c1ccc2nc(-c3ccc(-c4nc5ccc(C(=O)NN(C)C)cc5[nH]4)cc3)[nH]c2c1` [Compound 67] displayed an IC50 (Table L) of over 200 µM.
The molecule `CN(C)CCCSc1ccc(-c2nc3cc(-c4ccc5[nH]c(-c6ccc(C(=O)NCCN(C)C)cc6)nc5c4)ccc3[nH]2)cc1` [Compound 387] had an IC50 (Table M) of 8.86 µM.
`CN(C)CCNC(=O)c1ccc(-c2nc3ccc(-c4ccc5nc(-c6ccc(C(=O)N(C)CCOCCOCc7cn(CCCNCC(=O)N8CCC[C@H]8C(=O)N8CCC[C@H]8C(=O)N8CCC[C@H]8C(=O)N8CCC[C@H]8C(=O)N(CCCn8cc(COCCOCCN(C)C(=O)c9ccc(-c%10nc%11ccc(-c%12ccc%13nc(-c%14ccc(C(=O)NCCN(C)C)cc%14)[nH]c%13c%12)cc%11[nH]%10)cc9)nn8)CC(N)=O)nn7)cc6)[nH]c5c4)cc3[nH]2)cc1` [Compound 432]: the IC50 (Table M) was determined as 11.6 µM.
`CN(C)CCNC(=O)c1ccc(-c2nc3ccc(-c4ccc5nc(-c6ccc(C(=O)NC7CCC(CC8CCC(NC(=O)c9ccc(-c%10nc%11ccc(-c%12ccc%13nc(-c%14ccc(C(=O)NCCN(C)C)cc%14)[nH]c%13c%12)cc%11[nH]%10)cc9)CC8)CC7)cc6)[nH]c5c4)cc3[nH]2)cc1` (centres unmarked) [Compound 428] registered an IC50 (Table M) of 2.9 µM.
Turning to `CN(C)CCCOc1ccc2nc(-c3ccc(-c4nc5ccc(C(=O)O)cc5[nH]4)cc3)[nH]c2c1` [Compound 250, 2-(4-(6-(3-(dimethylamino)propoxy)-1H-benzo[d]imidazol-2-yl)phenyl)-1H-benzo[d]imidazole-6-carboxylic acid], the IC50 (Table M) was over 200 µM.
Where the note is “Table L”, `Nc1ccc2nc(-c3ccc(-c4nc5ccc(N)cc5[nH]4)cc3)[nH]c2c1` [Compound 2, 2,2′-(1,4-phenylene)bis(1H-benzo[d]imidazol-6-amine)] had an IC50 of 197 µM.
In turn, `O=C(O)c1ccc2nc(-c3ccc(-c4nc5ccc(C(=O)O)cc5[nH]4)cc3)[nH]c2c1` [Compound 11, 2,2′-(1,4-phenylene)bis(1H-benzo[d]imidazole-6-carboxylic acid)] had an IC50 (Table L) of over 200 µM.
For `CN(C)C/C=C/COc1ccc2nc(-c3ccc(-c4nc5ccc(OC/C=C/CN(C)C)cc5[nH]4)cc3)[nH]c2c1` [Compound 233, (2E,2′E)-4,4′-((2,2′-(1,4-phenylene)bis(1H-benzo[d]imidazole-6,2-diyl))bis(oxy))bis(N,N-dimethylbut-2-en-1-amine)], the IC50 (Table M) was 39.5 µM.
The molecule `CCN(CC)C(=O)COc1ccc(-c2nc3cc(-c4ccc5[nH]c(-c6ccc(OCC(=O)N(CC)CC)cc6)nc5c4)ccc3[nH]2)cc1` [Compound 349] displayed an IC50 (Table M) of over 200 µM.
For the setting “Table L”, `CN(C)CCN(C)C(=O)c1ccc2nc(-c3ccc(-c4nc5ccc(C(=O)N(C)CCN(C)C)cc5[nH]4)cc3)[nH]c2c1` [Compound 68] had an IC50 of over 200 µM.
Turning to `CN(C)Cc1cccc(Oc2ccc3nc(-c4ccc(-c5nc6ccc(Oc7cccc(CN(C)C)c7)cc6[nH]5)cc4)[nH]c3c2)c1` [Compound 243], under “Table M”, the IC50 was over 200 µM.
Where the note is “Table M”, `CN(C)CCCOc1c(C(C)(C)C)cc(-c2nc3cc(-c4ccc5[nH]c(-c6cc(C(C)(C)C)c(O)c(C(C)(C)C)c6)nc5c4)ccc3[nH]2)cc1C(C)(C)C` [Compound 372, 2,6-di-tert-butyl-4-(2′-(3,5-di-tert-butyl-4-(3-(dimethylamino)propoxy)phenyl)-1H,1′H-[5,5′-bibenzo[d]imidazol]-2-yl)phenol] returned an IC50 of over 200 µM.

The IC50 is the point on the concentration scale where inhibition reaches its midpoint. Low values mean greater potency in that assay, high ones weaker potency in that assay.
